Test results from patent US8946247B2, “Quinazoline carboxamide azetidines” (Merck Patent GmbH, priority 2010, dated 2015).

Tests used:
pS6 MDA-MB-468 = experiment: Cellular Activity Assay (phospho-S6 in MDA-MB-468 cells); type: cell-based; settings: Homo sapiens, 2 hr compound incubation, percent pS6-positive cells
Method in brief: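 MDA-MB-468 cells treated with compound for 2 hr, fixed, then immunostained for phospho-S6 with propidium iodide counterstain. Green (pS6) and red (total) cells counted by laser-scanning cytometry; IC50 derived from percent pS6-positive cells versus compound concentration.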

Aurora B = target: T1, Aurora B (Homo sapiens, UniProt Q96GD4); experiment: Aurora B Kinase Assay; type: biochemical; settings: GST-Aurora B (1-344), 10 uM ATP, 90 min at 25 C
T1 construct: GST-Aurora B (1-344 amino acids); GST (N); purchased Carna Biosciences 05-102
T1 sequence (Q96GD4 whole entry, the tested form may be a part): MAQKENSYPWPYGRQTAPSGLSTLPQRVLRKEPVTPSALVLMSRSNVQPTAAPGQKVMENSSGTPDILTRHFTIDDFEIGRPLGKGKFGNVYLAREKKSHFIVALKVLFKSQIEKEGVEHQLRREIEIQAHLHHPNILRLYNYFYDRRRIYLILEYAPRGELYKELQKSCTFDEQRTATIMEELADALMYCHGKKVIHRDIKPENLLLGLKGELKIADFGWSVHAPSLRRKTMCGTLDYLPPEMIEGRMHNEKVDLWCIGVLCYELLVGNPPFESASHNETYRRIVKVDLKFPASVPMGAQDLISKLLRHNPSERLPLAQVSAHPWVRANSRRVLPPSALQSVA
T1 sequence (Q9NQS7 803-918 partner limits assumed): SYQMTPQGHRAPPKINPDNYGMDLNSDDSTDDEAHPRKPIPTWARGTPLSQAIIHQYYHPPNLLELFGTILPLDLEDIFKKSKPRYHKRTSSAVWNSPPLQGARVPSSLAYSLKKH
Method in brief: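 GST-Aurora B (aa 1-344, with His-INCENP) at 0.1 ng/ul, 10 uM ATP and 1 uM FITC-LRRASLG peptide in HEPES pH 7.5 with MgCl2 and DTT, 90 min at 25 C, stopped with EDTA. Substrate-to-product conversion read by off-chip mobility shift; IC50 from sigmoidal dose-response fit.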

P70S6K (T412E mutant) = target: T2, P70S6K (T412E mutant) (Homo sapiens, UniProt P23443, T412E); experiment: p70S6K Enzyme Assay; type: biochemical; settings: 24 μM ATP, 90 min at 25° C., Caliper mobility shift
T2 construct: purchased Millipore
T2 sequence (P23443 1-421 T412E limits assumed): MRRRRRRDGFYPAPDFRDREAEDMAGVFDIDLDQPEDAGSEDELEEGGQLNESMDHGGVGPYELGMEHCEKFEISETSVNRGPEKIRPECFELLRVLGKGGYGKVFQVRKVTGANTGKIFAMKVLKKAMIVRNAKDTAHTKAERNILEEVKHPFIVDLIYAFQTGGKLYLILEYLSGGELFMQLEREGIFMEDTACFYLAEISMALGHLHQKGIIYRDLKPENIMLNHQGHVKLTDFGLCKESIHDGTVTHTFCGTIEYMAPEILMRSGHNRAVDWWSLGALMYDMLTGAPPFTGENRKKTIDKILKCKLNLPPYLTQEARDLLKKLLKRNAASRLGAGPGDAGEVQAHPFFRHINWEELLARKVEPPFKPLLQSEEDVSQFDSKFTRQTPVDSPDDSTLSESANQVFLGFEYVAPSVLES
Method in brief: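 Mobile-shift assay: 3 nM P70S6K T412E with 24 μM ATP and 1 μM FITC-labelled S6-derived peptide in Hepes pH 7.5, MgCl2, DTT, Brij; 90 min at 25 °C, stopped with EDTA. Substrate/phosphopeptide ratio separated electrophoretically on Caliper LabChip; IC50 determined.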

Akt1 = target: T3, Akt1 (Homo sapiens, UniProt P31749); experiment: AKT/PKB Kinase Assay; type: biochemical; settings: His-AKT (Full Length), 160 uM ATP, 90 min at 25 C
T3 construct: 0.1 ng/ul His-AKT (Full Length), (Invitrogen, Part #P2999, Lot #641228C); His; purchased Invitrogen P2999
T3 sequence (P31749 whole entry): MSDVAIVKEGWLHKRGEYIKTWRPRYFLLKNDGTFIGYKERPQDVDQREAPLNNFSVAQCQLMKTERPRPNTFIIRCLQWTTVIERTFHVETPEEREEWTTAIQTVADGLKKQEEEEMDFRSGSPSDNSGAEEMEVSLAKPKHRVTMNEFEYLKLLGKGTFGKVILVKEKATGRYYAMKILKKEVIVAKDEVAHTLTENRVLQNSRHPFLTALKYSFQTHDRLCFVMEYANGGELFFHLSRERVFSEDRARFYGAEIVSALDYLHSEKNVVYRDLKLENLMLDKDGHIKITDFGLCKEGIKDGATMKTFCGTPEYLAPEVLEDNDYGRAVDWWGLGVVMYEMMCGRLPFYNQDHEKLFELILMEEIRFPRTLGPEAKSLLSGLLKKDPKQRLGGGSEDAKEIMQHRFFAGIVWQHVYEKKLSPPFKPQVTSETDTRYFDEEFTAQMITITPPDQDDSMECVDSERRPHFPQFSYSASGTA
Method in brief: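 Full-length His-tagged human AKT1 (0.1 ng/ul) with 1 uM FITC-labelled GRPRTSSFAEG peptide, 160 uM ATP, 1 mM MgCl2, 1 mM DTT in 100 mM HEPES pH 7.5, 90 min at 25 C, EDTA stop. Substrate/product peptides separated by off-chip mobility shift; IC50 fitted from % conversion dose-response.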

For NC(=O)c1cccc2c(N[C@H](CN3CCC3)c3ccc(Br)cc3)ncnc12 [Example 8, 4-[(S)-2-Azetidin-1-yl-1-(4-bromophenyl)-ethylamino]-quinazoline-8-carboxylic acid amide], the IC50 (pS6 MDA-MB-468) was 0.039 µM, the IC50 (Aurora B) was 0.065 µM and the IC50 (P70S6K (T412E mutant)) was 0.0016 µM. It also gave an IC50 (Akt1) of 0.048 µM.
COc1cccc([C@@H](CN2CCC2)Nc2ncnc3c(C(N)=O)cccc23)c1 [Example 12, 4-[(S)-2-Azetidin-1-yl-1-(3-methoxyphenyl)-ethylamino]-quinazoline-8-carboxylic acid amide] showed an IC50 (pS6 MDA-MB-468) of 0.204 µM, an IC50 (Aurora B) of 0.067 µM and an IC50 (P70S6K (T412E mutant)) of 0.0044 µM. For the same molecule, the IC50 (Akt1) was 0.25 µM.
NC(=O)c1cccc2c(N[C@H](CN3CCC3)c3ccc(C(F)(F)F)cc3)ncnc12 [Example 9, 4-[(S)-2-Azetidin-1-yl-1-(4-trifluoromethylphenyl)-ethylamino]-quinazoline-8-carboxylic acid amide] was tested, and the IC50 (pS6 MDA-MB-468) was 0.01 µM, the IC50 (Aurora B) was 0.26 µM and the IC50 (P70S6K (T412E mutant)) was 0.0008 µM. The IC50 (Akt1) was 0.017 µM.
NC(=O)c1cccc2c(N[C@H](CN3CCC3)c3cccc(Br)c3)ncnc12 [Example 13, 4-[(S)-2-Azetidin-1-yl-1-(3-bromophenyl)-ethylamino]-quinazoline-8-carboxylic acid amide] gave an IC50 (pS6 MDA-MB-468) of 0.025 µM, an IC50 (Aurora B) of 0.017 µM and an IC50 (P70S6K (T412E mutant)) of 0.0003 µM. It also gave an IC50 (Akt1) of 0.005 µM.
Molecule NC(=O)c1cccc2c(N[C@H](CN3CCC3)c3ccc(F)c(C(F)(F)F)c3)ncnc12 [Example 31, 4-[(S)-2-Azetidin-1-yl-1-(4-fluoro-3-trifluoromethyl-phenyl)-ethylamino]-quinazoline-8-carboxylic acid amide] has an IC50 (pS6 MDA-MB-468) of 0.028 µM, an IC50 (Aurora B) of 0.285 µM and an IC50 (P70S6K (T412E mutant)) of 0.0024 µM. The IC50 (Akt1) was 0.0073 µM.
Work on COc1cc([C@@H](CN2CCC2)Nc2ncnc3c(C(N)=O)cccc23)ccc1F [Example 43, 4-[(S)-2-Azetidin-1-yl-1-(4-fluoro-3-methoxy-phenyl)-ethylamino]-quinazoline-8-carboxylic acid amide] yielded an IC50 (pS6 MDA-MB-468) of 0.484 µM, an IC50 (Aurora B) of 0.069 µM and an IC50 (P70S6K (T412E mutant)) of 0.004 µM. The IC50 (Akt1) was 0.021 µM.
